Biological target: BRD4 D2 (Homo sapiens, UniProt O60885)

`Cc1sc2c(c1C)C(c1ccc(Cl)cc1)=N[C@@H](CC(=O)OC(C)(C)C)c1nnc(C)n1-2` [(+)-JQ1] was tested. Which “binding to BRD4 D2 by ITC” value did it give?
Its value is “potent binding”.

From article PMC9683399 (Journal of medicinal chemistry, 2022)
